From ChEMBL document CHEMBL1201862, “PubChem BioAssay data set” (2004)
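The compound was tested at five concentrations on cells cultured in 96-well plates, with a 48-hour exposure period. GI50: concentration for 50% inhibition of growth.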 Activity calls are given as the source filed them. Cut-off read from the data, not from the text of the source: active = GI50 up to about 1.1 µM and inactive = higher.

Columns and labels:
Assay in all cases: NCI tumour cell line growth inhibition, 48 h
[1] = system: ACHN
[2] = system: BT-549
[3] = system: EKVX
[4] = system: HL-60
[5] = system: IGROV-1
[6] = system: KM12
[7] = system: MDA-MB-231
[8] = system: MDA-N
[9] = system: Malme-3M
[10] = system: NCI-H522
[11] = system: RPMI-8226
[12] = system: SF-539
[13] = system: SK-MEL-5
[14] = system: SN12C
[15] = system: SR
[16] = system: SW-620
[17] = system: TK-10
[18] = system: U-251
[19] = system: UACC-62

Measured: GI50

CC1=C(O)C(=O)c2ccccc2C1=O
inactive: [1] 58.7 µM | [2] 18.6 µM | [3] > 100 µM | [4] 6.82 µM | [5] 80.4 µM | [6] 23 µM | [7] > 100 µM | [8] 46.7 µM | [9] 9.02 µM | [10] 47.9 µM | [11] 18.6 µM | [12] > 100 µM | [13] 4.45 µM | [14] > 100 µM | [15] 88.5 µM | [16] 84.3 µM | [17] 24.3 µM | [18] 34 µM | [19] 39.3 µM

COC(=O)C1(C)CCCC2(C)c3cc(OC)ccc3C(=O)C(Br)C12 (stereo not drawn)
inactive: [2] > 10 µM | [3] > 10 µM | [4] 2.14 µM | [5] > 10 µM | [6] > 10 µM | [7] 3.35 µM | [8] 3.81 µM | [9] 2.72 µM | [10] 2.86 µM | [11] 2.24 µM | [12] > 10 µM | [13] > 10 µM | [14] 8.61 µM | [15] 2.76 µM | [16] 2.15 µM | [17] > 10 µM | [18] > 10 µM | [19] > 10 µM

CC1=NNC(=S)NCCCN2CCN(CCCNC(=S)NN=C(C)C=NNC(=S)NCCCN3CCN(CCCNC(=S)NN=C1)CC3)CC2
inactive: [1] > 100 µM | [2] > 100 µM | [3] > 100 µM | [4] > 100 µM | [5] > 100 µM | [6] > 100 µM | [7] > 100 µM | [8] > 100 µM | [9] > 100 µM | [10] > 100 µM | [11] > 100 µM | [12] > 100 µM | [13] > 100 µM | [14] > 100 µM | [15] > 100 µM | [16] > 100 µM | [17] > 100 µM | [18] > 100 µM | [19] > 100 µM

CC1(C)OCC(C2OC3OC(C)(C)OC3C2N)O1 (stereo not drawn)
inactive: [1] > 100 µM | [2] > 100 µM | [3] > 100 µM | [4] > 100 µM | [5] > 100 µM | [6] > 100 µM | [7] > 100 µM | [8] > 100 µM | [9] > 100 µM | [10] > 100 µM | [11] > 100 µM | [12] > 100 µM | [13] > 100 µM | [14] > 100 µM | [15] > 100 µM | [16] > 100 µM | [17] > 100 µM | [18] > 100 µM | [19] > 100 µM

Cc1ccc(C(=O)/C=C2\Nc3ccccc3S\C2=N\CS(=O)(=O)c2ccc(C)cc2)cc1
inactive: [1] > 10 µM | [2] > 10 µM | [4] 7.41 µM | [5] > 10 µM | [6] > 10 µM | [7] > 10 µM | [8] > 10 µM | [9] > 10 µM | [10] 5.38 µM | [11] > 10 µM | [12] > 10 µM | [13] > 10 µM | [14] > 10 µM | [15] > 10 µM | [16] > 10 µM | [17] > 10 µM | [18] > 10 µM | [19] > 10 µM

C/C(=N\NC(N)=O)C(CN1CCOCC1)C(c1ccccc1)c1c(O)c2ccccc2oc1=O (stereo not drawn)
inactive: [1] > 100 µM | [2] > 100 µM | [3] > 100 µM | [4] > 100 µM | [5] > 100 µM | [6] > 100 µM | [7] > 100 µM | [8] > 100 µM | [9] > 100 µM | [10] > 100 µM | [11] > 100 µM | [12] > 100 µM | [13] > 100 µM | [15] > 100 µM | [16] > 100 µM | [17] > 100 µM | [18] > 100 µM | [19] > 100 µM

O=C(c1ccccc1)c1ccc2[nH]c(-c3c(Cl)c(Cl)c(Cl)c(Cl)c3C(=O)N/N=C\C=C\c3ccccc3)nc2c1
inactive: [1] 19.8 µM | [2] 47.1 µM | [3] 40.7 µM | [4] 37.8 µM | [5] 34.4 µM | [6] 61.4 µM | [7] 22.6 µM | [8] 32.1 µM | [9] 57.3 µM | [10] 26.9 µM | [11] 17.5 µM | [12] 61 µM | [13] 26.9 µM | [14] 31.3 µM | [15] 23.3 µM | [16] 54.1 µM | [17] 86.9 µM | [18] 68.9 µM

CCCC(=O)NC1=C(NCC)C(=O)c2ccccc2C1=O
inactive: [1] > 100 µM | [2] > 100 µM | [4] 40.5 µM | [5] > 100 µM | [6] 52.4 µM | [7] 83.4 µM | [8] 20.8 µM | [9] 38.5 µM | [10] 25.9 µM | [11] > 100 µM | [12] > 100 µM | [13] 74.1 µM | [14] > 100 µM | [15] 60.5 µM | [16] 33.4 µM | [17] > 100 µM | [18] > 100 µM | [19] > 100 µM

C1CSC(Sc2nc(SC3=NCCS3)nc(SC3=NCCS3)n2)=N1
inactive: [1] > 100 µM | [2] > 100 µM | [3] > 100 µM | [4] > 100 µM | [5] > 100 µM | [6] > 100 µM | [7] > 100 µM | [8] > 100 µM | [9] > 100 µM | [10] 35.5 µM | [11] > 100 µM | [12] > 100 µM | [13] > 100 µM | [14] > 100 µM | [15] > 100 µM | [16] > 100 µM | [17] > 100 µM | [18] > 100 µM | [19] > 100 µM

COC(=O)Cc1c2n(c3ccccc13)C(=O)N1c3ccccc3C(CC(=O)OC)C21 (stereo not drawn)
inactive: [1] 24.4 µM | [2] 25.5 µM | [3] 45.3 µM | [4] 3.89 µM | [5] 7.41 µM | [7] 17.3 µM | [8] > 100 µM | [9] 81.3 µM | [10] 62.1 µM | [11] > 100 µM | [12] 16.1 µM | [13] 56.2 µM | [14] > 100 µM | [15] > 100 µM | [16] > 100 µM | [17] 14.9 µM | [18] 28.3 µM | [19] 23.5 µM

Cn1c(=O)c2c(nc3[nH]c(=O)c(Br)cn32)n(C)c1=O
inactive: [1] > 100 µM | [2] > 100 µM | [3] 93.8 µM | [4] > 100 µM | [5] > 100 µM | [6] > 100 µM | [7] > 100 µM | [8] > 100 µM | [10] > 100 µM | [11] > 100 µM | [12] > 100 µM | [13] > 100 µM | [14] > 100 µM | [15] > 100 µM | [16] > 100 µM | [17] > 100 µM | [18] > 100 µM | [19] > 100 µM

CC(=O)Nc1ccc(CNc2cc(=O)n(C)c(=O)[nH]2)cc1
inactive: [1] > 100 µM | [2] > 100 µM | [3] > 100 µM | [4] > 100 µM | [5] > 100 µM | [6] > 100 µM | [7] > 100 µM | [8] > 100 µM | [9] > 100 µM | [10] > 100 µM | [11] > 100 µM | [12] > 100 µM | [13] > 100 µM | [14] > 100 µM | [15] > 100 µM | [16] > 100 µM | [17] > 100 µM | [18] > 100 µM | [19] > 100 µM

O=C(Nc1nc2ccccc2s1)c1cc([N+](=O)[O-])ccc1Cl
inactive: [1] 17 µM | [2] 5.92 µM | [3] 10.1 µM | [4] 1.78 µM | [6] 3.29 µM | [7] > 55.1 µM | [8] 3.58 µM | [9] 23.7 µM | [10] 3.4 µM | [11] 4.81 µM | [12] 4.73 µM | [13] 7.6 µM | [14] 9.59 µM | [15] 1.54 µM | [16] 6.14 µM | [17] 66.4 µM | [18] 6.43 µM | [19] 7.5 µM

O=C(O)CNC(=O)C(CSC(=O)OCC1c2ccccc2-c2ccccc21)NC(=O)CCC(NC(=O)OCC1c2ccccc2-c2ccccc21)C(=O)O (stereo not drawn)
inactive: [1] 18.4 µM | [2] > 100 µM | [3] 17.8 µM | [4] 28.8 µM | [5] 13.1 µM | [7] 17.9 µM | [8] 28.1 µM | [9] 20.7 µM | [10] 1.57 µM | [11] 21.5 µM | [12] 16.3 µM | [13] 63.4 µM | [14] 16.5 µM | [15] 3.49 µM | [16] 19 µM | [17] 22.2 µM

CN(c1cn(C2CC[C@@H](CO)O2)c(=O)[nH]c1=O)C1CCCCC1 (stereo partly drawn)
inactive: [1] > 100 µM | [2] > 100 µM | [4] > 100 µM | [5] > 100 µM | [6] > 100 µM | [7] > 100 µM | [8] > 100 µM | [9] > 100 µM | [10] > 100 µM | [11] > 100 µM | [12] > 100 µM | [13] > 100 µM | [14] > 100 µM | [15] > 100 µM | [16] > 100 µM | [17] > 100 µM | [18] > 100 µM | [19] > 100 µM
